Test results reported in patent EP0116944B1 (priority 1983, dated 1984).
Where two headings read alike, the source gives them in different places.

Legend:
[1] = system: Vasopressin-induzierten Koronarspasmen; parameters: species or system Ratten; details: in vivo; for Dauer der antianginösen Wirkung gegenüber Vasopressin: po
[2] = in vivo; details: dog, iv
[3] = system: ST-Wellensenkung; details: cited from earlier work
[4] = system: Blutdruck anästhesierter Ratten; details: in vivo
[5] = system: systolischen Blutdruck; parameters: species or system Hunde; details: in vivo
[6] = system: hypotensive Wirkung; details: in vivo
[7] = system: Hypotensivum; details: orale Verabreichung; cited from earlier work
[8] = intraduodenal, Ratten; cited from earlier work

For O=[N+]([O-])OC(CO)CO [2-GN, Glycerin-2-nitrat], the “Dauer der antianginösen Wirkung gegenüber Vasopressin” value [1] was 2 to 3 h and the half-life [2] was 126 min.
In the case of O=[N+]([O-])O[C@H]1CO[C@H]2[C@@H]1OC[C@H]2O[N+](=O)[O-] [ISDN, Isosorbid-dinitrat], the “Hemmung der ST-Wellensenkung” value ([3]; oral, Ratten) is listed as “hemmten”.
In the case of O=[N+]([O-])OCC(CO[N+](=O)[O-])O[N+](=O)[O-] [GTN, Glycerintrinitrat], the “Dauer der hypotensiven Wirkung” value [4] was 14 min, the “Beginn der Wirkung” value [5] was 0,4 min and the “Einfluß auf den systolischen Blutdruck” value [5] was “senkten”. For the same molecule, the “Hemmung der T-Wellenerhöhung / Vasopressin-induzierten Koronarspasmen” value [1] was “entschieden den stärksten Einfluß”, the “Dauer der antianginösen Wirkung gegenüber Vasopressin” value [1] was 2 to 3 h and the “hypotensive Wirkung nach Vorbehandlung mit DHE” value [6] was “herabgesetzt”. The “Hemmung der ST-Wellensenkung” value ([3]; in vivo) was “hemmte”, the “Wirksamkeit als Hypotensivum” value [7] was “inaktiv” and the “Zeit, nach der kein weiterer Plasmawert der Ausgangssubstanz gemessen werden konnte” value [8] was no more than 5 min.
For OCCN(CCO)c1nc(N2CCCCC2)c2nc(N(CCO)CCO)nc(N3CCCCC3)c2n1 [Dipyridamol], the “Hemmung der ST-Wellensenkung” value ([3]; in vivo) is listed as “unwirksam”.
